Measurements published in ChEMBL document CHEMBL5030560, “Berberine Molecular Recognition of the Parallel MYC G-Quadruplex in Solution” (J Med Chem, 2021).
The source made the active and inactive calls. The rule behind the calls is not given here.

Experiments:
Assay type in all cases: nucleic-acid assay
[1] = tested on: Quadruplex DNA; assay: Binding affinity to human MycG4 DNA (unknown origin) assessed as compound-DNA complex at 2:1 ratio by mass spectroscopy
[2] = tested on: Quadruplex DNA; assay: Binding affinity to human MycG4 DNA (unknown origin) assessed as compound-DNA complex at 3:1 ratio by 1D NMR analysis
[3] = biological target: Quadruplex DNA; assay: Binding affinity to human MycG4 DNA (unknown origin) assessed as apparent dissociation constant by fluorescence based binding assay; conditions: read-out: Kd(app)

SMILES: COc1ccc2cc3[n+](cc2c1OC)CCc1cc2c(cc1-3)OCO2 [BERBERINE]
- Activity [1]: Active
- Activity [2]: Active
- Kd [3]: 9.9 µM
